Results reported in the NIST ThermoML archive (doi:10.1021/je050525c).
Numbers after ± are expanded uncertainties.

Details: Liquid, Ebulliometric method (Recirculating still)

Row | SMILES | vapor or sublimation pressure (179.68 K) [kPa] | vapor or sublimation pressure (190.14 K) [kPa] | vapor or sublimation pressure (200.68 K) [kPa] | vapor or sublimation pressure (210.03 K) [kPa]
1 | FC(F)(F)F [tetrafluoromethane] | 679 ± 5 | 1058 ± 6 | 1575 ± 7 | 2163 ± 9
2 | CC [ethane] | 77 ± 4 | 136 ± 4 | 223 ± 4 | 336 ± 4
